What all share (assay type): biochemical
Assay [1] concerns the target T1, HDAC6 (Homo sapiens, UniProt Q9UBN7).
T1 sequence (Q9UBN7 1-1215): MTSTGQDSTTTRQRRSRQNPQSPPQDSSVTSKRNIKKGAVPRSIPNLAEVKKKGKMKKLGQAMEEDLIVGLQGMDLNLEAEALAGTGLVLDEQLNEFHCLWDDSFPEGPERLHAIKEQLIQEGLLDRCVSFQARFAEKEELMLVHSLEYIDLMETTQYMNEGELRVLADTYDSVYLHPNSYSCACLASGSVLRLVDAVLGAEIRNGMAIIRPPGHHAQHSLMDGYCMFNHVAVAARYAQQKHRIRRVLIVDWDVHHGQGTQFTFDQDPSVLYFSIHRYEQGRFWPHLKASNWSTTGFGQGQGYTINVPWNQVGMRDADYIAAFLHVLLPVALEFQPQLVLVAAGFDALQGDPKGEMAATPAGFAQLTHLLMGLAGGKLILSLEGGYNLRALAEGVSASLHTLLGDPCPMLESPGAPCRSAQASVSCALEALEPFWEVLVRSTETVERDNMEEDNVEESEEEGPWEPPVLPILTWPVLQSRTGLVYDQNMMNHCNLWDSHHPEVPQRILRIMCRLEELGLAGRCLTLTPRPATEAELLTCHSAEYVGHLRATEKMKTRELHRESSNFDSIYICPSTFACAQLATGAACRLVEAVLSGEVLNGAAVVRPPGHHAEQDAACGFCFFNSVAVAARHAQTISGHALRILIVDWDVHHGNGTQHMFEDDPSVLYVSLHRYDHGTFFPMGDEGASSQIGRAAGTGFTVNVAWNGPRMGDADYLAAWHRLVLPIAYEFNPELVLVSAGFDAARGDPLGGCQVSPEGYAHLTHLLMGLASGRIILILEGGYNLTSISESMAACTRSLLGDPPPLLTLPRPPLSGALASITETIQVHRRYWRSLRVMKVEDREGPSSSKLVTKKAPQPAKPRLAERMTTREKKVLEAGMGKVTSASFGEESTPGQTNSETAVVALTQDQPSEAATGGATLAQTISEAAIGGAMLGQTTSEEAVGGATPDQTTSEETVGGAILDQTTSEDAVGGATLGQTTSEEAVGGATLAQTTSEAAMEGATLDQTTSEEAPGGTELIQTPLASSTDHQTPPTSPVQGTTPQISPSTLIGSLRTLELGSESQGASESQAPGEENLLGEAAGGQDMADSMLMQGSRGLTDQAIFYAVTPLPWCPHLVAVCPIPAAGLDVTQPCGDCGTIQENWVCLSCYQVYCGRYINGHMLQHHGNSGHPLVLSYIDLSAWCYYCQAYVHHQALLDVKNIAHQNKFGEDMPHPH
Description: HDAC6 enzyme activity inhibition IC50 evaluation experiment. The note with it: HDAC6 5 nM, acetylated peptide 11 μM, trypsin, fluorescence. The procedure: (§1) Effect Example 2 HDAC1, HDAC2, HDAC3, HDAC6 enzyme activity inhibition IC50 evaluation experiment
(§2) Buffer solution (50 mM Tris 7.5, 0.01% Tween-20, 50 mM NaCl) was prepared according to the kit instructions, and the enzyme solution and substrate solution (acetylated peptide with the addition of trypsin) were prepared using the buffer solution. The test compound samples were dissolved with DMSO and added to the screening system at a certain starting concentration such as 10 μM, 3-fold dilution, while setting up a DMSO control and no-enzyme control. The enzyme reaction system includes: buffer, enzyme [final concentration: HDAC1=10 nM, HDAC2=4 nM, HDAC3=7 nM, HDAC6=5 nM], substrate (acetylated peptide) [final concentration: Peptide(HDAC1)=8 μM, Peptide(HDAC2)=10 μM, Peptide(HDAC3)=5 μM, Peptide(HDAC6)=11 μM], trypsin [final concentration: Trypsin(HDAC1,2,3)=0.05 μM, Trypsin(HDAC6)=0.1 μM], etc. The enzymes and compounds were reacted at room temperature for 15 min. After adding the substrate and Trypsin, centrifugation was performed for 1 min, and the fluorescence signal data (excitation wavelength 355 nM/emission wavelength 460 nm) was read continuously for 60 min using Envision, and the linear reaction segment was selected to obtain the slope and thus calculate the inhibition rate at that concentration. The IC50 value was obtained by fitting the curve using the formula Y=Bottom+(Top-Bottom)/(1+(IC50/X)^HillSlope).

In assay [2] the target is T2, HDAC8 (Homo sapiens, UniProt Q9BY41).
T2 sequence (Q9BY41 1-377): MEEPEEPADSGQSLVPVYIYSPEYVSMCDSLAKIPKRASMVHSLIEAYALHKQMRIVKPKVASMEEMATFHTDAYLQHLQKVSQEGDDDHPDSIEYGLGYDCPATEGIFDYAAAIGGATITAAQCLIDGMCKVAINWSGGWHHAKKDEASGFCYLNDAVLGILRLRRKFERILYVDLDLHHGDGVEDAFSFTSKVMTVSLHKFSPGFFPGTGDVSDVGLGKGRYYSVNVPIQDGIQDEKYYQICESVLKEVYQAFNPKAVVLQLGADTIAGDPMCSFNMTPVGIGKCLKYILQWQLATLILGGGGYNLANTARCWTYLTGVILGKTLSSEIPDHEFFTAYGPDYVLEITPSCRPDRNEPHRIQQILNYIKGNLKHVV
The assay can be described thus: HDAC8 enzyme activity inhibition IC50 evaluation experiment. The note with it: HDAC8 10 nM, acetylated peptide 20 μM, 240 min, fluorescence. As to the method: Effect Example 3 HDAC8, HDAC10 enzyme activity inhibition IC50 evaluation experiment
Prepare buffer solution (HDAC8: 50 mM Tris 8.0, 2.7 mM KCl, 137 mM NaCl, 1 mM MgCl2, 1 mg/mL BSA; HDAC10: 50 mM Tris 7.5, 0.01% Tween-20, 50 mM NaCl, 0.05 mg/mL BSA) according to the kit instructions, prepared Enzyme solution, substrate solution (acetylated peptide) by using buffer. The test compound samples were dissolved in DMSO and was added to the screening system at a certain starting concentration such as 10 μM, 3-fold dilution, while setting up the DMSO control and the no-enzyme control. The enzyme reaction system includes: buffer, enzyme [final concentration: HDAC8=10 nM, HDAC10=10 nM], substrate (acetylated peptide) [final concentration: Peptide(HDAC8)=20 μM, Peptide(HDAC10)=4 μM], etc. The enzymes and compounds were reacted at room temperature for 15 minutes. After adding the substrate peptide the reaction system was reacted at room temperature for 240 min. Trypsin solution was added [final concentration: Trypsin=50p M] and incubation continued for 120 min. The fluorescence signal data (excitation wavelength 355 nM/emission wavelength 460 nm) was read with Envision instrument. Calculate the inhibition rate at this concentration based on the relative fluorescence units (RFU). The IC50 value was obtained by fitting a curve using the formula Y=Bottom+(Top-Bottom)/(1+(IC50/X)^HillSlope).

Assay [3] has as its target HDAC3 (Homo sapiens, UniProt O15379). The assay can be described thus: HDAC3 enzyme activity inhibition IC50 evaluation experiment. The following applies: HDAC3 7 nM, acetylated peptide 5 μM, trypsin, fluorescence. The procedure:
as §1, §2

Each structure is given as a SMILES string.

Sequence of HDAC3 (O15379 whole entry, species assumed): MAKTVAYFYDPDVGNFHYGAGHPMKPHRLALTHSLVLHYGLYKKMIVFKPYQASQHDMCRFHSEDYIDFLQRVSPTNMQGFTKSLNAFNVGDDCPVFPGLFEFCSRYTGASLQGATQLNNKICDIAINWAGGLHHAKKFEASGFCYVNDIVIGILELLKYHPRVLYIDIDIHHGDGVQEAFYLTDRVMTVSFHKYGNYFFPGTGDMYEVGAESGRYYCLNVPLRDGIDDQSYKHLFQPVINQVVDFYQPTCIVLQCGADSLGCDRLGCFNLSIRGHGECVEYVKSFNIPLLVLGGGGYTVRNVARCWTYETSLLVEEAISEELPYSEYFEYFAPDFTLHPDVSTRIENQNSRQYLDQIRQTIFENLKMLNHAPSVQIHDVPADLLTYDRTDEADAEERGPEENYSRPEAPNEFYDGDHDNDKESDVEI
Sequence of HDAC3 (Q9Y618 395-489 partner limits assumed, species assumed): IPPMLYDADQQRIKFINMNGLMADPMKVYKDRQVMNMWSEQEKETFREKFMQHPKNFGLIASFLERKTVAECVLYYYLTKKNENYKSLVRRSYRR

One may read the IC50 as the concentration that inhibits the measured activity by half. A high value points to lower potency. Take `COc1ncc(-c2nc(N3CCOCC3)nc3c(OC4CCN(c5ccc(C(=O)NO)cn5)CC4)cc(F)cc23)cc1NS(C)(=O)=O` [Compound 40]: the IC50 in assay [1] is 10 to 100 nM; in assay [2], 1000 to 10000 nM; in assay [3], 100 to 1000 nM.

With `COc1ncc(-c2nc(N3CCOCC3)nc3c(OCCCCCCC(=O)NO)cc(F)cc23)cc1NS(C)(=O)=O` [Compound 9], the IC50 in assay [1] was no more than 10 nM; in assay [3], 10 to 100 nM.

Turning to `COc1ncc(-c2nc(N3CCOCC3)nc3c(CN4CCN(c5ncc(C(=O)NO)cn5)CC4)cc(F)cc23)cc1NS(C)(=O)=O` [Compound 7], the IC50 in assay [1] and in assay [3] was 10 to 100 nM in each case.

Take `COc1ncc(-c2nc(N3CCOCC3)nc3c(OC4CCN(c5ncc(C(=O)NO)cn5)CC4)cc(F)cc23)cc1NS(C)(=O)=O` [Compound 39]: the figures for the IC50 in assay [1], in assay [2] and in assay [3] were 100 to 1000 nM, 100 to 1000 nM and 10 to 100 nM, respectively.

On to `COc1ncc(-c2nc(N3CCOCC3)nc3c(OC4CCN(c5ncc(C(=O)NO)cc5F)CC4)cc(F)cc23)cc1NS(C)(=O)=O` [Compound 30], for which the IC50 in assay [1] lay in the range of 10 to 100 nM; in assay [2], 100 to 1000 nM; in assay [3], 100 to 1000 nM.

Source of the values: patent US20240217947A1, “Morpholinylquinazoline Compound, Pharmaceutical compositions thereof and Use Thereof” (SHANGHAI YINGLI PHARMACEUTICAL CO., LTD, priority 2022, published 2024).
